In the supplement of paper PMC8671470:

Key:
Assay in all cases: cell viability (% survival relative to DMSO control, bortezomib = 0%); higher = less cytotoxic
Conditions in all cases: 72 h
SHI-1 = tested on: SHI-1
Outline: (§1)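 Percent survival is reported as the mean of duplicate wells. Cells from 10 AML and 5 CML lines were plated in 384-well plates containing compounds at 1, 10, 100, 1000 or 10000 nM and kept for 72 h at 37 °C in 5% CO2. Readout used CellTiter-Glo luminescence, scaled so that vehicle equals 100% and a 10 µM positive control equals 0%.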

BV-173 = tested on: BV-173
Outline: as §1

Mono-Mac-6 = tested on: Mono-Mac-6
Outline: as §1

KU-812 = tested on: KU-812
Outline: as §1

Row | SMILES | cell viability (SHI-1; 1 nM) | cell viability (SHI-1; 10 nM) | cell viability (SHI-1; 100 nM) | cell viability (SHI-1; 1000 nM) | cell viability (SHI-1; 10000 nM) | cell viability (BV-173; 1 nM) | cell viability (BV-173; 10 nM) | cell viability (BV-173; 100 nM) | cell viability (BV-173; 1000 nM) | cell viability (BV-173; 10000 nM) | cell viability (Mono-Mac-6; 1 nM) | cell viability (Mono-Mac-6; 10 nM) | cell viability (Mono-Mac-6; 100 nM) | cell viability (Mono-Mac-6; 1000 nM) | cell viability (Mono-Mac-6; 10000 nM) | cell viability (KU-812; 1 nM) | cell viability (KU-812; 10 nM) | cell viability (KU-812; 100 nM) | cell viability (KU-812; 1000 nM) | cell viability (KU-812; 10000 nM)
1 | O=C(O)CC[C@H](NC(=O)c1ccc([N+](=O)[O-])cc1)C(=O)O [(S)-2-(4-Nitrobenzamido)pentanedioic acid] | 97.5% | 107% | 102% | 102% | 93.9% | 96.2% | 108% | 92.8% | 104% | 80.7% | 96% | 103% | 94.9% | 97.6% | 98% | 91.6% | 100% | 98.7% | 96.9% | 89.8%
2 | Clc1ccc2c(c1Cl)CNCC2 | 116% | 122% | 110% | 112% | 96.1% | 95% | 95.9% | 103% | 107% | 83.6% | 95.3% | 103% | 104% | 106% | 77.4% | 99.9% | 92.5% | 94.4% | 118% | 87.8%
3 | O=c1c2ccccc2[se]n1-c1ccccc1 [Ebselen] | 107% | 96.5% | 106% | 92.6% | 88.6% | 90.5% | 101% | 84.4% | 106% | 83.8% | 99.1% | 93.8% | 103% | 98.1% | 84.6% | 94.5% | 104% | 89.5% | 99.4% | 87.8%
4 | CCOC(=O)[C@H]1O[C@@H]1C(=O)N[C@@H](CC(C)C)C(=O)NCCC(C)C [Aloxistatin] | 102% | 92.6% | 104% | 102% | 92.5% | 96.7% | 118% | 105% | 96.7% | 91.5% | 97.3% | 108% | 104% | 89% | 81.7% | 94% | 104% | 103% | 105% | 96.5%
5 | Clc1ccc(COC(Cn2ccnc2)c2ccc(Cl)cc2Cl)cc1 (stereo not given) [Econazole] | 112% | 91% | 98.8% | 87.2% | 62.1% | 114% | 92.6% | 84.2% | 70.1% | 43.1% | 102% | 92.1% | 86.7% | 78.4% | 58.8% | 113% | 101% | 87.2% | 89.5% | 41.9%
6 | Oc1cc(Cl)ccc1Oc1ccc(Cl)cc1Cl [Triclosan] | 105% | 96% | 98.3% | 101% | 103% | 98% | 120% | 107% | 98.4% | 105% | 94.5% | 98.3% | 101% | 116% | 97.2% | 98.8% | 87% | 99.2% | 98% | 57.9%
7 | CC(C)Cc1sc(N)nc1-c1ccc(P(=O)(O)O)o1 | 106% | 98.3% | 106% | 98.7% | 104% | 85.3% | 111% | 102% | 95.2% | 86.7% | 97.6% | 85.3% | 95.2% | 101% | 86.6% | 96.3% | 94.9% | 98.7% | 90.6% | 88.2%
8 | O=C(O)c1nn(Cc2ccc(Cl)cc2Cl)c2ccccc12 [Lonidamine] | 107% | 114% | 105% | 95.5% | 99.4% | 104% | 89.4% | 108% | 90.1% | 94.5% | 106% | 111% | 102% | 87.5% | 72.5% | 103% | 97% | 112% | 97% | 88.8%
9 | CCOc1ccc(Cc2cc([C@@H]3O[C@H](CO)[C@@H](O)[C@H](O)[C@H]3O)ccc2Cl)cc1 [Dapagliflozin] | 99.4% | 114% | 85.2% | 91.1% | 107% | 74.5% | 106% | 87% | 98.2% | 82% | 91.5% | 95.1% | 87.5% | 91.7% | 88.8% | 85.7% | 96.5% | 90.5% | 106% | 81.3%
10 | C#Cc1cnc(O)nc1O [Eniluracil] | 97.7% | 106% | 114% | 103% | 102% | 94.6% | 115% | 106% | 109% | 85.9% | 104% | 125% | 105% | 106% | 97.4% | 94.9% | 109% | 95.2% | 94.3% | 89.7%
11 | O=C(O)C(Cl)Cl [Dichloroacetate] | 99.7% | 104% | 96.8% | 101% | 103% | 96.9% | 91% | 103% | 95.7% | 93.9% | 92.4% | 92.4% | 113% | 98.8% | 102% | 97.1% | 90.9% | 99% | 108% | 100%
12 | CCCc1nn(C)c2c(O)nc(-c3cc(S(=O)(=O)N4CCN(C)CC4)ccc3OCC)nc12 [Sildenafil] | 103% | 95% | 104% | 111% | 114% | 87.4% | 106% | 94.4% | 109% | 92.1% | 87.9% | 110% | 100% | 110% | 105% | 87.5% | 104% | 91.3% | 107% | 92.1%
13 | COc1c(C)c2c(c(O)c1C/C=C(\C)CCC(=O)O)C(=O)OC2 [Mycophenolic acid] | 105% | 104% | 92% | 77.2% | 14.4% | 104% | 98.8% | 115% | 29.9% | -0.741% | 104% | 99.7% | 108% | 80% | 16.4% | 94.6% | 94.5% | 104% | 51.7% | 10.9%
14 | Cc1c(-c2ccccc2)oc2c(C(=O)OCCN3CCCCC3)cccc2c1=O.Cl [Flavoxate] | 94.8% | 99.6% | 97.6% | 98.4% | 101% | 86.9% | 100% | 95.6% | 94.1% | 97.9% | 92.6% | 105% | 101% | 96% | 94.6% | 92.2% | 110% | 111% | 99% | 99.2%
